Like-named read-outs stand apart in the source and are kept apart here.
Assays:
[1] = Polymorphic acetylation in humans; assay type: in vivo; settings: conclusion from urinary excretion in 10 phenotyped volunteers
bovine adrenal cells = test system: bovine adrenal cells; design: method as in Coombes et al., 1980; settings: bovine adrenal cells in culture, ref Coombes et al., 1980, cited from earlier work; for Glucocorticoid production, % of the resting levels: 10 ug/ml
[2] = design: method as in Coombes et al. (1980); settings: after AG, ref Coombes et al. (1980), cited from earlier work
[3] = cited from earlier work
mammary carcinoma = test system: mammary carcinoma; design: method as in Smith et al., 1978; settings: postmenopausal women; ref Smith et al., 1978; cited from earlier work
[4] = design: method as in Douglas & Nicholls, 1972; settings: humans, urine; ref Douglas & Nicholls, 1972; cited from earlier work
[5] = 24 h urinary excretion of AG and metabolites in volunteers given oral AG; settings: oral AG 250 mg, 24 h urine, excreted as the named substance; for Percentage of the administered dose excreted in the urine during 24 h, mean, rapid (fast) acetylators: rapid acetylators of sulphadimidine (5 volunteers); for Percentage of the administered dose excreted in the urine during 24 h, mean, slow acetylators: slow acetylators of sulphadimidine (5 volunteers)
[6] = 6 h urine after sulphadimidine
[7] = design: method as in Testa & Jenner, 1976; settings: ref Testa & Jenner, 1976; cited from earlier work
steroidogenesis = settings: no reference given; cited from earlier work
[8] = design: method as in Hoffman & Tagmann, 1954; settings: ref Hoffman & Tagmann, 1954; cited from earlier work

Structure (SMILES): CCC1(c2ccc(N)cc2)CCC(=O)NC1=O (stereo not shown) [AG, aminoglutethimide]
- Acetylation polymorphism in humans [1]: polymorphically acetylated
- Glucocorticoid production, % of the resting levels (bovine adrenal cells): 833%
- Plasma level at 0.5 h, mean, slow acetylators ([2]; 4 slow acetylators): 1140 ng/mL
- Plasma level at 0.5 h, mean, rapid acetylators ([2]; 5 rapid acetylators): 960 ng/mL
- Plasma level at 2 h, mean, rapid acetylators ([2]; 5 rapid acetylators): 0 to 60000 ng/mL
- Side effects in patients ([3]; patients, ref Smith et al., 1978): skin rash and lethargy
- Efficacy in the treatment of mammary carcinoma (mammary carcinoma): effective agent

Structure (SMILES): CCC1(c2ccc(NC(C)=O)cc2)CCC(=O)NC1=O (stereo not shown) [N-acetylAG, N-Acetylaminoglutethimide]
- Glucocorticoid production, % of the resting levels (bovine adrenal cells): 58%
- Inhibition of steroidogenesis (ability to reduce corticosteroid output) (bovine adrenal cells; compared with AG): poor inhibitor
- Plasma level at 8 h, mean, slow acetylators ([2]; 4 slow acetylators): 0 to 37000 ng/mL
- Percentage of the administered dose of AG accounted for as urinary metabolite [4]: 4-25%
- Percentage of the administered dose excreted in the urine during 24 h, mean, rapid (fast) acetylators [5]: 8.8%
- Percentage of the administered dose excreted in the urine during 24 h, mean, slow acetylators [5]: 3.9%

Structure (SMILES): CC(=O)Nc1ccc(S(=O)(=O)Nc2nc(C)cc(C)n2)cc1 [N-acetylsulphadimidine]
- Percentage of the excreted dose as N-acetylsulphadimidine, rapid acetylators ([6]; rapid acetylators): 89-96%
- Percentage of the excreted dose as N-acetylsulphadimidine, slow acetylators ([6]; slow acetylators): 62-68%

Structure (SMILES): CCC1(c2ccc(NC=O)cc2)CCC(=O)NC1=O (stereo not shown) [N-formylAG, N-Formylaminoglutethimide]
- Percentage of the administered dose excreted in the urine during 24 h, mean, rapid (fast) acetylators [5]: 0.465%
- Percentage of the administered dose excreted in the urine during 24 h, mean, slow acetylators [5]: 0.475%

Structure (SMILES): Nc1ccc(S(=O)(=O)c2ccc(N)cc2)cc1 [diaminodiphenylsulphone]
- Acetylation polymorphism in humans [7]: polymor- phically acetylated

Structure (SMILES): CCC1(c2ccccc2)CCC(=O)NC1=O (stereo not shown) [glutethimide]
- Inhibitory effect on steroidogenesis (steroidogenesis): little inhibitory effect
- Hypnotic activity [8]: powerful hypnotic

Structure (SMILES): NNc1nncc2ccccc12 [hydralazine]
- Adverse side-effect induced ([3]; preponderantly in slow acetylators, ref Perry et al., 1970): lupus erythematosus

Structure (SMILES): NNC(=O)c1ccncc1 [isoniazid]
- Acetylation polymorphism in humans [7]: polymor- phically acetylated

Structure (SMILES): CCC1(c2ccc([N+](=O)[O-])cc2)CCC(=O)NC1=O (stereo not shown) [nitroG, Nitroglutethimide]
- Percentage of the administered dose excreted in the urine during 24 h, mean, rapid (fast) acetylators [5]: 0.047%
- Percentage of the administered dose excreted in the urine during 24 h, mean, slow acetylators [5]: 0.10%

Structure (SMILES): Cc1cc(C)nc(NS(=O)(=O)c2ccc(N)cc2)n1 [sulphamethazine]
- Acetylation polymorphism in humans [7]: polymor- phically acetylated

Reference: PMC2011122 (British Journal of Cancer, 1982)
